How the values were obtained:
[1] = Physical stability by clarity (absorbance at 630 nm) on storage at 5° C.; details: stored at 5° C. (refrigerated) for at least two weeks
Method: In vitro testing of exenatide formulations included a preservatives screen. Physical stability after storage at 5° C. was measured for all formulations tested in vitro. Exenatide formulations were placed in 1 cc glass vials and closed with trifoil lined caps and stored at 5° C. for at least two weeks. Physical stability was monitored by measuring clarity. Clarity of a formulation was determined by measuring absorbance at 630 nm, using the μQuant optical density plate reader for each formulation at days 0, 7, and 14. A 200 μL volume from each vial was placed in a 96-well plate and read against a background of water.
Varying concentrations of sodium benzoate (NaBz) and benzalkonium chloride (BAK), were screened for their effect on physical stability of the three formulations used in in vivo studies. Sodium benzoate was added at 1.0, 2.5, and 5.0 mg/mL, while BAK was tested at 0.2, 1.0, 2.0, and 4.0 mg/mL. To prepare the samples, varying amounts of stock solutions of the two preservatives were added to the three prepared formulations dosed in the PK study. […] The resulting formulations were stored at 5° C. for 5.5 weeks. Physical stability was monitored by measuring the absorbance of the solution at 630 nm.
Sodium benzoate was added at concentrations of 1.0 to 5.0 mg/mL, while BAK was tested at 0.05, 0.075, and 0.1 mg/mL. To prepare the samples, varying amounts of stock solutions of the two preservatives were added to the formulations prepared in the PK study and the pH was adjusted to 4.5 with HCl as necessary. The resulting formulations were stored at 5° C. for 4 weeks. Physical stability was monitored by measuring the absorbance of the solution at […].
The second formulation lacked any buffer to test the effect of the buffer itself on physical stability.

[2] = test system: epithelial tissue barrier (EpiAirway Tissue Model); test: In vitro permeation of exenatide across the cellular barrier (EIA analysis); details: for exenatide permeation (in words): compared with AKL-225-126-2 or control without enhancers
Excerpt: Initial studies focused on optimizing the concentrations of Me-β-CD, DDPC, EDTA, and gelatin to enhance exenatide permeation across an epithelial tissue layer.
A second round of studies, series B, systematically screened several excipients for their potential to enhance exenatide permeation to a greater degree than the Me-β-CD, DDPC, EDTA, and gelatin combinations. […] Initially, each excipient (except for those classified as “generally regarded as safe” (GRAS) by the FDA, recombinant gelatins, and PN159), was tested at two concentrations or in combination with Me-β-CD, DDPC, or EDTA. As with series A formulations, each formulation was evaluated for exenatide permeation, ability to reduce TER while not adversely affecting cell viability, and formulation physical stability.

[3] = test system: normal, human-derived tracheal/bronchial epithelial cells (EpiAirway Tissue Model); test: MTT cell viability assay; type: cell-based; details: for toxicity / cell viability in excipient screening (in words): cell viability as measured by LDH and MTT, exenatide formulation containing the named excipient
Excerpt: The extraction plate was covered and scaled to reduce evaporation of extractant.

[4] = test system: normal, human-derived tracheal/bronchial epithelial cells (EpiAirway Tissue Model); test: Transepithelial electrical resistance (TER) in the in vitro nasal epithelial model; type: cell-based; details: 60 min exposure
Excerpt: A cell line from MatTek Corp. (Ashland, Mass.) was used as the source of normal, human-derived tracheal/bronchial epithelial cells (EpiAirway™ Tissue Model). […] The cells were provided as inserts grown to confluence on Millipore Milicell-CM filters comprised of transparent hydrophilic Teflon (PTFE). […] TER measurements were accomplished using the Endohm-12 Tissue Resistance Measurement Chamber connected to the EVOM Epithelial Voltohmmeter (World Precision Instruments, Sarasota, Fla.) with the electrode leads. The electrodes and a tissue culture blank insert were equilibrated for at least twenty (20) minutes in phosphate buffered solution with the power off prior to checking calibration. The background resistance was measured with 1.5 mL media in the Endohm tissue chamber and 300 μL media in a blank Millicell-CM insert. […] The background resistance of the blank insert was 5-12 ohms.
TER was measured before and after the sixty (60) minute incubation. […] After the 60 minute incubation with test samples, 200 μL of fresh media was gently added to the apical surface of each test sample insert and final TER was measured for each insert. […] Resistance is expressed as follows: (resistance measured−blank)×0.6 cm^2.

[5] = test system: normal, human-derived tracheal/bronchial epithelial cells (EpiAirway Tissue Model); test: Lactate dehydrogenase (LDH) cytotoxicity assay; type: cell-based
Method: The amount of cell death was assayed by measuring the loss of lactate dehydrogenase (LDH) from the cells using a CytoTox 96 Cytoxicity Assay Kit (Promega Corp., Madison, Wis.). Fresh, cell-free culture medium was used as a blank. 50 μl harvested media (stored at 4° C.) was loaded in a 96-well plate. Substrate Solution (50 μl) was added to each well and the plates were incubated for thirty (30) minutes at ambient temperature in the dark. Following incubation, 50 μl of Stop Solution was added to each well and the reaction was monitored at A490 using an optical density plate reader. Media alone applied to the apical side served as a negative control while triton X served as the positive control for the LDH assay.

Row | Compound | physical stability (clarity) [1] | exenatide permeation (in words) [2] | toxicity / cell viability in excipient screening (in words) [3] | also measured
1 | C[C@H](CCC(=O)NCC(=O)[O-])[C@H]1CC[C@H]2[C@@H]3[C@H](O)C[C@@H]4C[C@H](O)CC[C@]4(C)[C@H]3C[C@H](O)[C@]12C.[Na+] [Sodium glycocholate, sodium glycocholate] | physically instable at high concentrations | – | – | –
2 | OC[C@H]1O[C@@H]2O[C@H]3[C@H](O)[C@@H](O)[C@@H](O[C@H]4[C@H](O)[C@@H](O)[C@@H](O[C@H]5[C@H](O)[C@@H](O)[C@@H](O[C@H]6[C@H](O)[C@@H](O)[C@@H](O[C@H]7[C@H](O)[C@@H](O)[C@@H](O[C@H]8[C@H](O)[C@@H](O)[C@@H](O[C@H]1[C@H](O)[C@H]2O)O[C@@H]8CO)O[C@@H]7CO)O[C@@H]6CO)O[C@@H]5CO)O[C@@H]4CO)O[C@@H]3CO [β-cyclodextrin] | became turbid at refrigerated conditions | – | – | –
3 | CCO [ethanol] | – | did not enhance exenatide permeation | – | –
4 | hydroxypropyl-β-cyclodextrin [H-β-CD] | – | did not increase permeation significantly | – | –
5 | O=C(O)CN(CCN(CC(=O)O)CC(=O)O)CC(=O)O [EDTA] | – | – | cell viability began to decrease | –
6 | CCCCCCCCCCCCCCCC(=O)OC(CC(=O)[O-])C[N+](C)(C)C (racemic) [Palmitoyl-DL-carnitine, palmitoyl-DL-carnitine] | physically instable without Me-β-CD | – | toxic at high concentrations | –
7 | CCCCCCCC(=O)[O-].[Na+] [sodium caprylate] | physical instability in the absence of Me-β-CD | failed to enhance exenatide permeation to any extent alone or with permeation enhancers | toxic at 20 mM with Me-β-CD and EDTA | –
8 | CCCCCCCC/C=C\CCCCCCCC(=O)O [oleic acid] | – | – | lowered cell viability | –
9 | triton X | – | – | – | TER reduction (in words) [4]: lowest possible TER; cytotoxicity as measured by % LDH (in words) [5]: significant toxicity; cytotoxicity as measured by % MTT (in words) [3]: significant toxicity
10 | dimethyl-β-cyclodextrin [DMe-β-CD] | – | – | more toxic to the cells than Me-β-CD | fold increase in exenatide permeation over AKL-225-126-2 ([2]; full dose volume (100 µL)): 1.5 fold
11 | CC(O)CO (stereo not shown) [propylene glycol] | – | failed to enhance permeation at all | – | –
12 | Tween-80 | – | failed to enhance exenatide permeation to the same extent as formulation AKL-225-126-2 | – | –
13 | CCCCCCCCC(=O)OC[C@H](COP(=O)([O-])OCC[N+](C)(C)C)OC(=O)CCCCCCCC [dinonanoyl glycero phosphatidylcholine] | becoming turbid in less than two weeks at refrigerated conditions | – | – | –
14 | CCCCCCCCO[C@@H]1O[C@H](CO)[C@H](O)[C@H](O)[C@H]1O [galactopyranoside, n-Octyl-β-D-galactopyranoside] | – | – | toxic at 10 mg/mL | –
15 | CCCCCCCCCC(=O)[O-].[Na+] [sodium caprate] | physical instability in the absence of Me-β-CD | – | low cell viability at 50 mM alone | –

From patent US20080318861A1, “Mucosal Delivery of Stabilized Formulations of Exendin” (NASTECH PHARMACEUTICAL COMPANY INC., priority 2005, published 2008)
